Each structure is given as a SMILES string. ≈ marks a conversion by molar mass, not a printed value. Entries after “also recorded” stand apart in the source; their conditions may differ.

The conditions of data set [1]: cited from earlier work.
The nature of data set [2]: CBD solubility testing in liquid vehicles. It counts as physicochemical. The source says: The liquid vehicles used are considered G.R.A.S. by FDA; distilled water, deionized water, propylene glycol and 70% isopropyl alcohol. The test containers were 125-milliliter graduated and measured sterile plastic from Wheaton company. A thermometer probe was used to assess the temperatures.
Testing was done to determine the independent solubility of each reagent in the various vehicles. This was followed by testing the potential concentrations of each when combined. The testing started with an arbitrary solution concentration, one that could be altered for percentage of solubility.

Data set [3] can be described thus: Testing of smear on glass slide (crystals deployed). It counts as physicochemical. The source says: An additional method was employed to replicate the clinical topical application. A smear of the various concentrations was made on the glass histology blank slide to show the amount of crystals deployed for the various concentrations.
For data set [4] the following is noted: humans; cited from earlier work.
The conditions of data set [5]: cited from earlier work. This is another data set of the same source.
The next data set relates to MRSA and Pseudomonas. As to conditions: cited from earlier work.
The conditions of data set [6]: compared with vitamin E; cited from earlier work.

Consider `C=C(C)[C@@H]1CCC(C)=C[C@H]1c1c(O)cc(CCCCC)cc1O` [CBD, Cannabidiol], for which the elimination half-life in data set [1] (in vivo) was 18 to 32 h. Moreover, the “heating necessary for dissolving” value in data set [2] (0.247 (0.247%) in 100 ml distilled water) and in data set [2] (1.0 gram (1%) in 100 ml distilled water) was 120 degrees Fahrenheit each time. Moreover, the “solution outcome upon cooling” value is “went out of solution” in data set [2] (0.247 (0.247%) in 100 ml distilled water, heated to 120 degrees Fahrenheit then cooled); “went out of solution” in data set [2] (1.0 gram (1%) in 100 ml distilled water, heated to 120 degrees Fahrenheit then cooled); “came out of solution” in data set [2] (2% in 100 ml propylene glycol, heated then cooled). The “time remained in solution” value is “at least 48 hours” in data set [2] (0.517 (0.5 grams) in 50 ml deionized water, preheated) and greater than 48 h in data set [2] (1 gram (1%) in 100 ml propylene glycol, preliminary heating to 120 Fahrenheit, after cooling). Also, in data set [2] (1.02 gram in 100 ml isopropyl alcohol), the time soluble entry is given as “more than 48 hours”. For the same compound, the “temperature at which it went into solution” value in data set [2] (1.025 grams in 50 ml deionized water) is reported as 120 Fahrenheit. The solution outcome in data set [2] (1.025 grams in 50 ml deionized water (2.05%), after cooling) is reported as “came out of solution”; in data set [2] (2 grams (4%) in 50 ml propylene glycol, with heating), “did not go into solution even with heating; also recorded: not dissolved even on heating”. Moreover, the time remained soluble entry in data set [2] (3 grams in 100 ml 70% isopropyl alcohol) is recorded as “more than 48 hours”. Moreover, the “temperature required to dissolve” value in data set [2] (40 milligrams of CBD in distilled water) is 140 degrees Fahrenheit. Besides, in data set [2] (heated past 100 Fahrenheit), the “effect of heating in solution” value is given as “forms a tan “glue” like material”. For the same compound, the “effect of heating alone and/or in combination” value in data set [2] (heating above 90 Fahrenheit) is “tan ‘glue’ or sticky material”. Also, the “crystals on glass slide smear” value is “very sparse crystals” in data set [3] (1% concentrations); “abundant crystals” in data set [3] (concentrations of 2 and 3%). In data set [4], the oral bioavailability result is “approximately 6%”. For the same compound, in data set [5] (DMSO purged with an inert gas), the “solubility in DMSO” value was roughly 60 mg/mL (≈ 191 mM). Further, in data set [5] (alcohol, at the original time of extraction, by the literature), the “solubility in alcohol / isopropyl alcohol” value is on record as “up to 90%”. In data set [5] (dimethyl formamide purged with an inert gas), the “solubility in dimethyl formamide” value is roughly 50 mg/mL (≈ 159 mM). In addition, the solubility in ethanol result in data set [5] (ethanol purged with an inert gas) is given as “approximately 35 mg/ml”. In data set [5] (methanol purged with an inert gas), the solubility in methanol is roughly 30 mg/mL (≈ 95.4 mM).
Regarding `O=C(O)c1ccc(O)c(O)c1` [PCA, Protocatechuic acid], the “life (duration in the body)” value in data set [1] (in vivo) is 8 h. The oral availability in data set [1] (oral, in 30 minutes) is recorded as 100%. Besides, the peak in data set [1] (time of peak in the body) is 2 min. In addition, the “crystals on glass slide smear” value in data set [3] (concentrations of 2 and 3%) is recorded as “abundant crystals”. The “time to heal the wound” value with MRSA and Pseudomonas (topical 25 uM PCA, mammalian skin wound) was 2 days. Further, in the data set with MRSA and Pseudomonas (topical, mammalian skin wound of MRSA and Pseudomonas), the “topical dose sufficient for controlling skin wound infection” value was 25 µM. Further, the “antioxidant power relative to vitamin E” value in data set [6] is given as 10 times.

(Values after US11896561B2, “Compositions including a cannabinoid and protocatechuic acid” (priority 2021, dated 2024).)
